The series is described as follows: in vitro. The following applies: human, hela cells, % viability.

As a reminder, the viability is a read-out of living cells in per cent, often relative to untreated cells. Take `O=C(NCc1cccnc1)N1CCN(c2ccccc2)CC1` [CBK155178]: the viability at 28.5 h, 10 µM stood at 98.2%. Take `O=C(Nc1ccc(Cl)cc1)N1CCN(c2ccccc2)CC1` [CBK155188]: the viability at 28.5 h, 10 µM is 101%. As for `O=C(NCc1c(Cl)cccc1Cl)N1CCN(c2ccccc2)CC1` [CBK155194], the viability at 28.5 h, 10 µM is 98.5%. For the compound `O=C(NC1CCc2ccccc21)N1CCN(c2ccccc2)CC1` (stereo not shown) [CBK155208], the viability at 28.5 h, 10 µM was determined as 92.2%.

Turning to `CCOC(=O)CCCNC(=O)N1CCN(c2ccccc2)CC1` [CBK155209], the viability at 28.5 h, 10 µM worked out at 94.6%. Take `CCOC(=O)N1CCC(NC(=O)N2CCN(c3ccccc3)CC2)CC1` [CBK155210]: the viability at 28.5 h, 10 µM came to 113%. Turning to `CCOC(=O)CCNC(=O)N(CC)Cc1ccccc1` [CBK155228], the viability at 28.5 h, 10 µM was 88.7%. Consider `O=c1c(N2CCC(Sc3ccccc3)CC2)nccn1Cc1ccc(OC(F)(F)F)cc1` [CBK155257], for which the viability at 28.5 h, 10 µM came out at 94.7%. Still for that read-out and setting: next, `COc1ccc(C(=O)N2CCN(C)CC2)cc1Nc1cncc(-c2cc3ccccc3o2)n1` [CBK155266T]: 89.9%; `O=C(Nc1ccc2[nH]ccc2c1)N1CCc2ccccc2C1` [CBK155289]: 84.5%.

On to `NC(=O)c1ccc(NC(=O)N2CCc3ccccc3C2)cc1` [CBK155299], for which the viability at 28.5 h, 10 µM was determined as 80.9%. For `CC(NC(=O)N1CCc2ccccc2C1)c1ccccc1` (stereo not shown) [CBK155310], the viability at 28.5 h, 10 µM turned out to be 102%. Still for that read-out and setting: next, `O=C(Nc1cccnc1)N1CCc2ccccc2C1` [CBK155312]: 100%; `COc1cc(CNC(=O)N(CCc2ccccc2)Cc2ccccc2)cc(OC)c1OC` [CBK155329]: 110%. Regarding `CC(C)CNC(=O)N(CCc1ccccc1)Cc1ccccc1` [CBK155339], the viability at 28.5 h, 10 µM came to 93.8%. For `CC(C)CCNC(=O)N(CCc1ccccc1)Cc1ccccc1` [CBK155351], the viability at 28.5 h, 10 µM stood at 90.8%.

For the compound `CCOC(=O)N1CCC(NC(=O)N(CCc2ccccc2)Cc2ccccc2)CC1` [CBK155359], the viability at 28.5 h, 10 µM was determined as 107%. Consider `COc1ccccc1N1CCN(C(=O)NCc2cnc(C)cn2)CC1` [CBK155367], for which the viability at 28.5 h, 10 µM is 105%.

With `COc1ccccc1N1CCN(C(=O)NCCc2c[nH]cn2)CC1` [CBK155369], the viability at 28.5 h, 10 µM worked out at 98.8%. On the same count and under the same terms, in the case of `COc1cc(C(=O)N2CCC(n3c(=O)[nH]c4c(C)cccc43)CC2)ccc1C` [CBK155372] it was 94.2%. On to `COC(=O)C1CCN(Cc2ccc(-c3nnn(CC(=O)NCc4ccc(C)cc4)n3)cc2)C1` (stereo not shown) [CBK155406T], for which the viability at 28.5 h, 10 µM stood at 105%. With `Cc1ccc(CNC(=O)Cn2nnc(-c3ccc(CN4CCC(S(C)(=O)=O)C4)cc3)n2)cc1` (stereo not shown) [CBK155407T], the viability at 28.5 h, 10 µM was 91.7%. `CCCS(=O)(=O)Nc1cccc(-c2nnn[nH]2)c1` [CBK155417]: the viability at 28.5 h, 10 µM stood at 104%. For `O=[N+]([O-])c1ccccc1CS(=O)(=O)Nc1ccc(-c2nnn[nH]2)cc1` [CBK155430], the viability at 28.5 h, 10 µM was 94.5%. In the case of `O=C(Nc1cccc(C(=O)O)c1)Nc1cccc(-c2ccccc2)c1` [CBK155451G], the viability at 28.5 h, 10 µM came to 93.5%. Consider `O=C(Nc1cccc(-c2nnn[nH]2)c1)Nc1ccc(Cl)c(Cl)c1` [CBK155454], for which the viability at 28.5 h, 10 µM was found to be 96.3%. With `O=C(Nc1cccc(C(=O)O)c1)Nc1ccc(Cl)c(Cl)c1` [CBK155455G], the viability at 28.5 h, 10 µM amounted to 88.7%.

As for `O=C(NCc1ccc(Cl)c(Cl)c1)Nc1cccc(C(=O)O)c1` [CBK155461G], the viability at 28.5 h, 10 µM is 109%. For `COc1cc(C(=O)N2CCC(N3C(=O)Cc4ccccc43)CC2)ccc1C` [CBK155465], for the setting “bulk resorufin, single well”, the viability at 28.5 h, 10 µM is 84.2%. As to `CCc1c(C)nc2ccccc2c1[S+]([O-])CCC(=O)OC` (stereo not shown) [CBK155467T], the viability at 28.5 h, 10 µM came out at 91.8%. For `CCc1c(C)nc2ccccc2c1S(=O)(=O)CCC(=O)OC` [CBK155468T], the viability at 28.5 h, 10 µM is 96.8%.

As to `O=C(Nc1ccc(Br)cc1)C1CCCN1S(=O)(=O)c1ccc(Cl)cc1` (stereo not shown) [CBK155481], the viability at 28.5 h, 10 µM was determined as 88.4%. In the case of `CCc1c(C)nc2ccccc2c1SCCOC(=O)Nc1cccc([N+](=O)[O-])c1` [CBK155545T], the viability at 28.5 h, 10 µM was 106%. In the case of `COc1ccc(C)cc1S(=O)(=O)n1cc2c3c(cccc31)CN(C(=O)CN(C)C)C2` [CBK155549T], the viability at 28.5 h, 10 µM was determined as 93.3%. For `O=S(=O)(Nc1ccc(-c2nnn[nH]2)cc1)c1c(Cl)cc(C(F)(F)F)cc1Cl` [CBK155570], the viability at 28.5 h, 10 µM was found to be 95.4%.

As for `CCCCOc1ccc(OC(=O)COCCOCCN2C(=O)c3ccccc3C2=O)cc1` [CBK155584], the viability at 28.5 h, 10 µM turned out to be 92.6%. On to `COc1ccccc1N1CCN(C(=O)NCC2CCCCC2)CC1` [CBK155588], for which the viability at 28.5 h, 10 µM was 98.3%. The same measure, in the same setting: in the case of `COc1ccccc1N1CCN(C(=O)Nc2ccc(Cl)cc2)CC1` [CBK155597] it was 94.5%.

With `COc1ccccc1N1CCN(C(=O)NCCC(C)C)CC1` [CBK155611], the viability at 28.5 h, 10 µM worked out at 94.5%.

As for `CSCCCNC(=O)N1CCN(Cc2ccccc2)CC1` [CBK155623], the viability at 28.5 h, 10 µM was determined as 89.9%. On to `O=C(NCc1ccc(Cl)c(Cl)c1)N1CCN(Cc2ccccc2)CC1` [CBK155624], for which the viability at 28.5 h, 10 µM was determined as 85.3%. Consider `Cc1cnc(CNC(=O)N2CCN(Cc3ccccc3)CC2)cn1` [CBK155627], for which the viability at 28.5 h, 10 µM stood at 99.3%. Turning to `O=C(NCc1cccc2ccccc12)N1CCN(Cc2ccccc2)CC1` [CBK155628], the viability at 28.5 h, 10 µM worked out at 92.2%. For `O=C(NCCc1c[nH]cn1)N1CCN(Cc2ccccc2)CC1` [CBK155629], the viability at 28.5 h, 10 µM was determined as 96.4%. Regarding `O=C(NC(c1ccccc1)c1ccccc1)N1CCN(Cc2ccccc2)CC1` [CBK155630], the viability at 28.5 h, 10 µM turned out to be 86.3%.

As for `N#Cc1ccc(CNC(=O)N2CCN(Cc3ccccc3)CC2)cc1` [CBK155637], the viability at 28.5 h, 10 µM amounted to 90.1%. Take `CC(=O)Nc1cccc(NC(=O)N2CCN(Cc3ccccc3)CC2)c1` [CBK155643]: the viability at 28.5 h, 10 µM is 98%. In the case of `CC(C)CNC(=O)N1CCN(Cc2ccccc2)CC1` [CBK155644], the viability at 28.5 h, 10 µM is 110%. In the case of `CCN(CC)CCCNC(=O)N1CCN(Cc2ccccc2)CC1` [CBK155655], the viability at 28.5 h, 10 µM was 89.8%.

Consider `O=C1CCCN1CCCNC(=O)N1CCN(Cc2ccccc2)CC1` [CBK155658], for which the viability at 28.5 h, 10 µM turned out to be 104%. Take `Cc1cc(Cl)cc(Cl)c1S(=O)(=O)Nc1cccc(C(=O)O)c1` [CBK155682]: the viability at 28.5 h, 10 µM is 93%. The same measure, in the same setting: in the case of `O=C(O)c1cccc(NS(=O)(=O)c2cccc(Cl)c2Cl)c1` [CBK155686] it was 94.7%.

Turning to `O=C(O)c1cccc(NS(=O)(=O)c2ccc(F)c(C(F)(F)F)c2)c1` [CBK155693], the viability at 28.5 h, 10 µM amounted to 97.2%. As to `O=C(O)c1cccc(NS(=O)(=O)c2ccc3c(c2)OCCO3)c1` [CBK155697], the viability at 28.5 h, 10 µM is 96.9%. Take `O=C(O)c1cccc(NS(=O)(=O)c2cccnc2)c1` [CBK155700]: the viability at 28.5 h, 10 µM came to 101%. As to `O=C(O)c1cccc(NS(=O)(=O)c2ccccc2)c1` [CBK155710], the viability at 28.5 h, 10 µM came out at 79.7%. Turning to `N#Cc1c(Cl)cccc1Oc1ccc(S(=O)(=O)Nc2cccc(C(=O)O)c2)cc1` [CBK155718], the viability at 28.5 h, 10 µM is 108%. With `O=C(O)c1cccc(NS(=O)(=O)c2c(Cl)cc(C(F)(F)F)cc2Cl)c1` [CBK155721], the viability at 28.5 h, 10 µM came out at 96.3%. For `O=C(O)c1cccc(NS(=O)(=O)c2ccc(-c3cc(C(F)(F)F)on3)s2)c1` [CBK155722], the viability at 28.5 h, 10 µM is 98%.

In the case of `O=C(O)c1cccc(NS(=O)(=O)c2ccc(Br)cc2C(F)(F)F)c1` [CBK155724], the viability at 28.5 h, 10 µM came out at 90.9%.

Consider `O=C(O)c1cccc(NS(=O)(=O)c2cc(C(F)(F)F)cc(C(F)(F)F)c2)c1` [CBK155725], for which the viability at 28.5 h, 10 µM was found to be 102%. On to `O=C(O)c1cccc(NS(=O)(=O)c2ccc(-c3cnco3)cc2)c1` [CBK155726], for which the viability at 28.5 h, 10 µM was found to be 97.4%. Regarding `CN(C)S(=O)(=O)Nc1ccc2c(ccn2Cc2ccccc2)c1` [CBK155765], the viability at 28.5 h, 10 µM turned out to be 86.6%. For `N#Cc1cccc(S(=O)(=O)Nc2cccc3[nH]ccc23)c1` [CBK155771], the viability at 28.5 h, 10 µM worked out at 60.6%. `O=S(=O)(/C=C/c1ccccc1)Nc1cccc2cc[nH]c12` [CBK155788]: the viability at 28.5 h, 10 µM was 82.7%. On to `O=C1CN(C(=O)NCC2COc3ccccc3O2)CCN1` (stereo not shown) [CBK155847], for which the viability at 28.5 h, 10 µM is 88.3%. For the compound `O=C1CN(C(=O)NC(c2ccccc2)c2ccccc2)CCN1` [CBK155853], the viability at 28.5 h, 10 µM is 93.6%. Take `O=C1CN(C(=O)NCC2CCCCC2)CCN1` [CBK155854]: the viability at 28.5 h, 10 µM is 85.9%. As to `O=C1CN(C(=O)Nc2ccc3[nH]ccc3c2)CCN1` [CBK155858], the viability at 28.5 h, 10 µM was 87%. On the same count and under the same terms, next, `CC(=O)Nc1cccc(NC(=O)N2CCNC(=O)C2)c1` [CBK155863]: 77.7%; `CC(C)CNC(=O)N1CCNC(=O)C1` [CBK155864]: 86.4%; `O=C1CN(C(=O)NCCc2c[nH]c3ccccc23)CCN1` [CBK155866]: 95.8%. On the same count and under the same terms, next, `O=C1CN(C(=O)NCc2ccc(Cl)cc2)CCN1` [CBK155867]: 109%. Take `CC(C)CCNC(=O)N1CCNC(=O)C1` [CBK155874]: the viability at 28.5 h, 10 µM came to 98.3%. Regarding `COc1cc(NC(=O)N2CCNC(=O)C2)cc(OC)c1OC` [CBK155875], the viability at 28.5 h, 10 µM is 104%. On to `CC(NC(=O)N1CCNC(=O)C1)c1ccccc1` (stereo not shown) [CBK155877], for which the viability at 28.5 h, 10 µM amounted to 96%. Turning to `O=C1CN(C(=O)NC2CCc3ccccc32)CCN1` (stereo not shown) [CBK155878], the viability at 28.5 h, 10 µM came to 97.5%.

Take `CN1CCC(N2CCN(C(=O)NCC3COc4ccccc4O3)CC2)CC1` (stereo not shown) [CBK155881]: the viability at 28.5 h, 10 µM was 107%.

Regarding `CSCCCNC(=O)N1CCN(C2CCN(C)CC2)CC1` [CBK155882], the viability at 28.5 h, 10 µM is 101%. Still for that read-out and setting: in the case of `CN1CCC(N2CCN(C(=O)NCc3ccc4c(c3)OCO4)CC2)CC1` [CBK155885] it was 88.3%. On to `CN1CCC(N2CCN(C(=O)NCc3cccnc3)CC2)CC1` [CBK155889], for which the viability at 28.5 h, 10 µM came to 89.2%. `COc1cc(CNC(=O)N2CCN(C3CCN(C)CC3)CC2)cc(OC)c1OC` [CBK155893]: the viability at 28.5 h, 10 µM worked out at 93.3%.
